This experiment addresses T1, p300 (Homo sapiens, UniProt Q09472).
T1 construct: host or cells: A549 P300 HiBit cells
The experiment can be described thus: P300 degradation, HiBit technology in A549 P300 HiBit cells (2 h). The experiment is classed as cell-based. Conditions: 2 hrs post treatment; for Dmax: A549, A549 P300 HiBit cells; for DC50: A549 P300 HiBit cells. On the procedure: p300 and CBP degradation potency and Dmax were determined using in cell western (ICW) assay technology in H1299 cells or HiBit technology in A549 HiBit cells.
A549 P300 HiBit and A549 CBP HiBit cells were plated in separate 384-well, TC treated, white-opaque, flat-bottomed microplate. Cells were plated at a cell density of 0.2×10^4 cells per well in assay media comprised of F-12K, 10% heat inactivated FBS, and 1% penicillin/streptomycin. Assay microplates containing HiBit cells were placed in a 37° C., 5% CO2, tissue culture incubator and left to equilibrate overnight. The next day cells were treated with serial dilutions of test compound made up of 10 mM stock solutions in DMSO. 384-Well plates containing treated cells were then placed back into a 37° C., 5% CO2, tissue culture incubator. Assay microplates containing A549 P300 HiBit cells were incubated for 2 hrs post treatment before P300 destruction was assessed, while microplates containing A549 CBP HiBit cells were incubated for 24 hrs post treatment before CBP destruction was determined. On the day of each assay time point, microplates were removed from the tissue culture incubator and prepared HiBit Lytic detection buffer (Promega, cat #N3O40) was added to each plate. Plates were covered with aluminum foil and incubated for ten minutes at room temperature on an orbital shaker. After incubation, luminescent signal of each plate was measured using the Envision instrument (Perkin Elmer).

T1 sequence (Q09472 whole entry): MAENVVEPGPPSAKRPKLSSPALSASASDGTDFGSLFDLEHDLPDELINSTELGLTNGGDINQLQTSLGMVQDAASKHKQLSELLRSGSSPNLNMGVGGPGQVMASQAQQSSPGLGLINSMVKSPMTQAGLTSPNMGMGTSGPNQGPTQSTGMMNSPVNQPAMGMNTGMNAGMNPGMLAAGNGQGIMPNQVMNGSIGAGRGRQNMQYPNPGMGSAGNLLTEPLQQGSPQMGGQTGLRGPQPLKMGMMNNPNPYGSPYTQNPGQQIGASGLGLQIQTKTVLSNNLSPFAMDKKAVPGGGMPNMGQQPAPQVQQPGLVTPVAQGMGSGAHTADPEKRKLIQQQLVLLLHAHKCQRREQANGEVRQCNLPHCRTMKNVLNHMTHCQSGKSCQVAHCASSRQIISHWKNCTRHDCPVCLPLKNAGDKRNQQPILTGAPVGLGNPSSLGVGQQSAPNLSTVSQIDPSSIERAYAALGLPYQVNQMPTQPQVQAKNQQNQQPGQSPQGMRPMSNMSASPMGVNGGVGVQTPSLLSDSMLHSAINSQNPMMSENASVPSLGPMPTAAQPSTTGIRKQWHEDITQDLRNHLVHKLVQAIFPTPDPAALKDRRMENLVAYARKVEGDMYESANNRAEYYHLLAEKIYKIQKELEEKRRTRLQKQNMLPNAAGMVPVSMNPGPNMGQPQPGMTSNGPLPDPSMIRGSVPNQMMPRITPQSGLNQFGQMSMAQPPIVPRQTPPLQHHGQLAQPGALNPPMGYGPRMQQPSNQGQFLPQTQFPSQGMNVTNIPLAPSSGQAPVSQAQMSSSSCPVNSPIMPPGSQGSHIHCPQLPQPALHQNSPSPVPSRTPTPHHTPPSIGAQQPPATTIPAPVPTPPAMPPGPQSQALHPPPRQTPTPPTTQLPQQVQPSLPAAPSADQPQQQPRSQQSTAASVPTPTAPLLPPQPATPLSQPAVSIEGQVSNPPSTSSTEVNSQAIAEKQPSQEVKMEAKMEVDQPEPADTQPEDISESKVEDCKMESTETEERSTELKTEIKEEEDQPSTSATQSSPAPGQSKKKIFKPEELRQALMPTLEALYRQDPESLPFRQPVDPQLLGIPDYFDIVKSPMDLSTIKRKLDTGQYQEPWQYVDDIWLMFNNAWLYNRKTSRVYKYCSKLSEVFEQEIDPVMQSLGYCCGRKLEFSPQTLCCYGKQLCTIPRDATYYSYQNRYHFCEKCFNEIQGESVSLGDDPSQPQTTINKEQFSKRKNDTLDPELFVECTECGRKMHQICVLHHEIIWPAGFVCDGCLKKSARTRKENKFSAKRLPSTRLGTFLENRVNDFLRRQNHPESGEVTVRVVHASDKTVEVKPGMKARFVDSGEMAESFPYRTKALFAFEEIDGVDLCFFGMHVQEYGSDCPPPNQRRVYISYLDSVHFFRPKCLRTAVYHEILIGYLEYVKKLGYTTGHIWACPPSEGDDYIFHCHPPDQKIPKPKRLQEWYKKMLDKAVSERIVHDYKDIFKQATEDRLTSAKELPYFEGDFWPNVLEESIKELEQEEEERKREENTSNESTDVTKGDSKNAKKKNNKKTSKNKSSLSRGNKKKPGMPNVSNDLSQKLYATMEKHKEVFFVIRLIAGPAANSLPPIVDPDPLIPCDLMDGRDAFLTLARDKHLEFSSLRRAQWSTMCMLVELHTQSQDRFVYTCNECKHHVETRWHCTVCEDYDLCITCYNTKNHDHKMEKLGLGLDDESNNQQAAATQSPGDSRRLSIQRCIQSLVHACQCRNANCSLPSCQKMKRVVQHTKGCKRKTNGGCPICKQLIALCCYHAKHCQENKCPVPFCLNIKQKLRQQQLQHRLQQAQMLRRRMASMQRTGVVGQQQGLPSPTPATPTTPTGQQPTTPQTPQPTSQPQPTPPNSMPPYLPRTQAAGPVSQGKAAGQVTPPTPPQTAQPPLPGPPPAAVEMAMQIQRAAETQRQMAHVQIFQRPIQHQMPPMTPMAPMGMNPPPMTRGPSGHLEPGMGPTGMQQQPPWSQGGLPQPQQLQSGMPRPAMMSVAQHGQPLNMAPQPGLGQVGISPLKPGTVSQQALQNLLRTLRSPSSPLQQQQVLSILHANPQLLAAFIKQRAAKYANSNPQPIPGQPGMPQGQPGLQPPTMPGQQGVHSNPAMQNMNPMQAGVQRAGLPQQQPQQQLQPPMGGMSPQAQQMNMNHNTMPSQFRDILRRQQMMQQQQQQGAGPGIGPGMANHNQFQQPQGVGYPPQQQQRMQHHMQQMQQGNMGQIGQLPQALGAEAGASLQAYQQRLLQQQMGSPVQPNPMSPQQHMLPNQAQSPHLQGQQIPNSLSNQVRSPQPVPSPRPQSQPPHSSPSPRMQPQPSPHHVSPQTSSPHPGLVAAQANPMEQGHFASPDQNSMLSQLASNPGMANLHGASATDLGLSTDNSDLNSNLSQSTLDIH

The molecule `CC(C)c1cc(-c2cccc3cc(-c4ccc(C(=O)NCC#Cc5ccc6c(CN(C)C)nn(C7CCC(=O)NC7=O)c6c5)nc4)ncc23)cc2c1n(C)c(=O)n2C` (centres unmarked) [Example A28, N-(3-(3-((Dimethylamino)methyl)-1-(2,6-dioxopiperidin-3-yl)-1H-indazol-6-yl)prop-2-yn-1-yl)-5-(8-(7-isopropyl-1,3-dimethyl-2-oxo-2,3-dihydro-1H-benzo[d]imidazol-5-yl)isoquinolin-3-yl)picolinamide] registered a Dmax of 60 to 79% and a half-maximal degradation concentration (DC50) of 1 to 9.9 nM.
With `COc1cc(-c2cc3cccc(-c4cc(C(C)C)c5c(c4)n(C)c(=O)n5C)c3cn2)cnc1C(=O)NCC#Cc1ccc2c(c1)c(C1CCC(=O)NC1=O)nn2C` (centres unmarked) [Example A30, N-(3-(3-(2,6-Dioxopiperidin-3-yl)-1-methyl-1H-indazol-5-yl)prop-2-yn-1-yl)-5-(8-(7-isopropyl-1,3-dimethyl-2-oxo-2,3-dihydro-1H-benzo[d]imidazol-5-yl)isoquinolin-3-yl)-3-methoxypicolinamide], the maximal degradation (Dmax) was above 80% and the 50% degradation concentration (DC50) is 1 to 9.9 nM.
The matching figures for `CC(C)c1cc(-c2cccc3cc(-c4ccc(C(=O)NCC#Cc5ccc6c(C(F)F)nn(C7CCC(=O)NC7=O)c6c5)nc4)ncc23)cc2c1n(C)c(=O)n2C` (centres unmarked) [Example A31, N-(3-(3-(Difluoromethyl)-1-(2,6-dioxopiperidin-3-yl)-1H-indazol-6-yl)prop-2-yn-1-yl)-5-(8-(7-isopropyl-1,3-dimethyl-2-oxo-2,3-dihydro-1H-benzo[d]imidazol-5-yl)isoquinolin-3-yl)picolinamide]: 20 to 39% and 1 to 9.9 nM.
In the same order, the values of `CC(C)c1cc(-c2cccc3cc(-c4ccc(C(=O)NCC#Cc5cc6c(c(NC7CCC(=O)NC7=O)c5)OCC6)nc4)ncc23)cc2c1n(C)c(=O)n2C` (centres unmarked) [Example A32, N-(3-(7-((2,6-Dioxopiperidin-3-yl)amino)-2,3-dihydrobenzofuran-5-yl)prop-2-yn-1-yl)-5-(8-(7-isopropyl-1,3-dimethyl-2-oxo-2,3-dihydro-1H-benzo[d]imidazol-5-yl)isoquinolin-3-yl)picolinamide] are above 80% and 1 to 9.9 nM.
With `CC(C)c1cc(-c2cccc3cc(-c4ccc(C(=O)NCc5ccc(-c6cnn(C7CCC(=O)NC7=O)c6)cc5)nc4)ncc23)cc2c1n(C)c(=O)n2C` (centres unmarked) [Example A33, N-(4-(1-(2,6-Dioxopiperidin-3-yl)-1H-pyrazol-4-yl)benzyl)-5-(8-(7-isopropyl-1,3-dimethyl-2-oxo-2,3-dihydro-1H-benzo[d]imidazol-5-yl)isoquinolin-3-yl)picolinamide], the Dmax is below 20% and the half-maximal degradation concentration (DC50) was above 1000 nM.
For `CC(C)c1cc(N2CCCc3cc(-c4ccc(C(=O)NCc5ccc(-c6ccn(C7CCC(=O)NC7=O)n6)cc5)nc4)c(C(F)F)cc32)cc2c1n(C)c(=O)n2C` (centres unmarked) [Example A37, 5-(7-(Difluoromethyl)-1-(7-isopropyl-1,3-dimethyl-2-oxo-2,3-dihydro-1H-benzo[d]imidazol-5-yl)-1,2,3,4-tetrahydroquinolin-6-yl)-N-(4-(1-(2,6-dioxopiperidin-3-yl)-1H-pyrazol-3-yl)benzyl)picolinamide], the Dmax was below 20% and the DC50 was above 1000 nM.
The matching figures for `CC(C)c1cc(-c2cccc3cc(-c4ccc(C(=O)NCC#Cc5ccc6c(c5)ncn6C5CCC(=O)NC5=O)nc4)ncc23)cc2c1n(C)c(=O)n2C` (centres unmarked) [Example A38, N-(3-(1-(2,6-Dioxopiperidin-3-yl)-1H-benzo[d]imidazol-5-yl)prop-2-yn-1-yl)-5-(8-(7-isopropyl-1,3-dimethyl-2-oxo-2,3-dihydro-1H-benzo[d]imidazol-5-yl)isoquinolin-3-yl)picolinamide]: below 20% and above 1000 nM.

For the origin of these results see US20250114345A1, “COMPOUNDS AND COMPOSITIONS AS CBP/P300 DEGRADERS AND USES THEREOF” (Oncopia Therapeutics, Inc. d/b/a/ SK Life Science Labs, priority 2023, published 2025).
